Patent US20100267712A1, “ISOINDOLINE COMPOUNDS FOR THE TREATMENT OF SPINAL MUSCULAR ATROPHY AND OTHER USES” (The United States of America, as represented by the …, priority 2007, published 2010)

Tested on: SMN2-linked luciferase-reporter gene construct
Test: SMN Splice Reporter Assay (SMN2-linked luciferase reporter)
Assay type: cell-based
Details: for EC50: cervical carcinoma cell lines, SMN2 splice luciferase reporter; for Fold Increase: fold-increase of luciferase over baseline reading of transformed cells without any test compound
Text: As previously discussed, SMN1 is the gene deleted in SMA patients; the SMN2 gene remains intact in both SMA and normal patients. Therefore, SMN2 provides a potential means of increasing SMN production in SMA patients and is, thus, a target for developing SMA treatments. SMN2 is identical to SMN1 with the exception of a single base pair change that results in reduced expression of the gene. The reduction is based on the creation of an alternatively spliced RNA that produces an unstable protein carrying a deletion of exon 7. Both full length SMN and exon 7 deleted SMN are produced by the SMN2 gene via alternative RNA splicing, but the major product is the unstable deleted form.
Cervical carcinoma cell lines were transformed with a SMN2-linked luciferase-reporter gene construct. The reporter is designed to detect shifts in the alternative splicing of SMN2 sequences. In particular, the reporter is constructed as a fusion of the alternatively spliced sequences of the SMN2 gene and the luciferase gene. Luciferase sequences are in the correct translational reading frame only when the SMN2 sequences are spliced according to the normal SMN1 mechanism (e.g., splicing to include exon 7), which allows for translation of the stable SMN protein. Compounds were tested in the assay by administering the compound to the cell line and detecting an increase in the luciferase activity. The assay is described in greater detail in Zhang et al., Gene Ther., 8: 1532-8 (2001). Compounds were administered as described in Lunn et al, Chem. & Biol, 11: 1489-1493 (2004).
The results are reported as a fold-increase over a baseline reading of transformed cells without any test compound. The EC50 value also is reported in Table 1 for some exemplary compounds of the invention.

EC50 [nM]	Compound	Fold Increase
2770	COc1ccc2c(c1)C(=O)N(c1ccc3ccn(CC#N)c3c1)C2 [Example 120603]	1.199
131	Cn1ccc2cc(N3Cc4cc(Cl)ccc4C3=O)ccc21 [Example 120778]	1.492
317	Cn1ccc2ccc(N3Cc4cc(Cl)ccc4C3=O)cc21 [Example 120779]	1.704
–	Cc1ccc2c(c1)CN(c1ccc3c(ccn3C)c1)C2=O [Example 120780]	1.344
184	COc1ccc2c(c1)CN(c1ccc3c(ccn3C)c1)C2=O [Example 120782]	1.49
59	COc1ccc2c(c1)C(=O)N(c1ccc3scnc3c1)C2 [Example 120785]	1.353
679	Cn1ccc2cc(N3Cc4c(Cl)cccc4C3=O)ccc21 [Example 120786]	1.376
15	O=C1c2cc3c(cc2CN1c1ccc2ncccc2c1)OCCO3 [Example 120787]	1.807
–	Cn1ccc2ccc(N3Cc4c(Cl)cccc4C3=O)cc21 [Example 120788]	1.25
9790	COc1cc2c(cc1OC)C(=O)N(c1ccc3c(ccn3C)c1)C2 [Example 120789]	1.427
238	Cn1ccc2ccc(N3Cc4cccc(Cl)c4C3=O)cc21 [Example 120792]	1.642
361	Cn1ccc2cc(N3Cc4cccc(Cl)c4C3=O)ccc21 [Example 120793]	1.395
373	Cn1ccc2ccc(N3Cc4ccc(-c5ccccc5)cc4C3=O)cc21 [Example 120949]	1.816
984	Cn1ccc2ccc(N3Cc4ccc(Cl)cc4C3=O)cc21 [Example 120950]	1.482
135	COc1ccc2c(c1)CN(c1ccc3ncccc3c1)C2=O [Example 120951]	1.769
414	Cc1cccc2c1CN(c1ccc3c(ccn3C)c1)C2=O [Example 120952]	1.374
1160	Cc1cccc2c1CN(c1ccc3ccn(C)c3c1)C2=O [Example 120953]	1.495
2040	COc1cc2c(cc1OC)C(=O)N(c1ccc3ncccc3c1)C2 [Example 120954]	1.356
1250	COc1cccc2c1CN(c1ccc3ncccc3c1)C2=O [Example 120956]	1.329
–	COc1ccc2c(c1)C(=O)N(c1ccc3ocnc3c1)C2 [Example 120957]	1.254
–	CC(=O)Nc1cccc2c1CN(c1ccc3c(ccn3C)c1)C2=O [Example 121074]	1.078
–	CC(=O)Nc1cccc2c1CN(c1ccc3ccn(C)c3c1)C2=O [Example 121075]	1.087
49	COc1ccc2c(c1)C(=O)N(c1ccc3c(ccn3C(C)=O)c1)C2 [Example 121076]	1.295
–	COc1ccc2c(c1)C(=O)N(c1ccc3c(c1)CC(=O)N3)C2 [Example 121077]	1.107
–	COc1ccc2c(c1)C(=O)N(c1cnc3[nH]ccc3c1)C2 [Example 121078]	1.246
42	COc1ccc2c(c1)C(=O)N(c1cnc3c(ccn3C)c1)C2 [Example 121079]	1.385
–	COc1ccc2c(c1)C(=O)N(c1ccc3ccn(CCN)c3c1)C2 [Example 121080]	1.163
177	CC(=O)Nc1cccc2c1C(=O)N(c1ccc3c(ccn3C)c1)C2 [Example 121081]	1.581

EC50 [nM]	Compound	Fold Increase
825	CC(=O)Nc1cccc2c1C(=O)N(c1ccc3ccn(C)c3c1)C2 [Example 121082]	1.496
–	COc1ccc2c(c1)C(=O)N(c1ccc3ccn(CCNC(C)=O)c3c1)C2 [Example 121083]	1.083
1590	Cn1ccc2ccc(N3Cc4ccc(N)cc4C3=O)cc21 [Example 121256]	1.638
175	Cn1ccc2ccc(N3Cc4cc(N)ccc4C3=O)cc21 [Example 121257]	1.856
35	COc1ccc2c(c1)C(=O)N(c1ccc3ccn(C(C)=O)c3c1)C2 [Example 121260]	1.414
336	COc1ccc2c(c1)C(=O)N(c1ccc3ncoc3c1)C2 [Example 121262]	1.317
161	COc1ccc2c(c1)C(=O)N(c1ccc3c(ccn3C)n1)C2 [Example 121263]	1.39
422	Cc1ccc2c(c1)C(=O)N(c1ccc3ccn(C)c3c1)C2 [Example 121504]	1.742
1040	CC(=O)Nc1ccc2c(c1)CN(c1ccc3ccn(C)c3c1)C2=O [Example 121506]	1.488
34	Cc1ccc2c(c1)C(=O)N(c1ccc3c(ccn3C)c1)C2 [Example 121507]	1.411
–	CC(=O)Nc1ccc2c(c1)CN(c1ccc3c(ccn3C)c1)C2=O [Example 121508]	1.201
3710	COc1cccc2c1CN(c1ccc3sccc3c1)C2=O [Example 121509]	1.564
159	Cn1ccc2cc(N3Cc4ccc(O)cc4C3=O)ccc21 [Example 121510]	1.542
113	COc1ccc2c(c1)CN(c1ccc3ccsc3c1)C2=O [Example 121511]	1.808
226	O=C1c2cc(OC(F)F)ccc2CN1c1ccc2ccsc2c1 [Example 121512]	1.766
749	COc1cccc2c1CN(c1ccc3ccsc3c1)C2=O [Example 121513]	1.612
–	COc1ccc2c(c1)C(=O)N(c1cc3cc[nH]c3cn1)C2 [Example 121514]	1.172
222	COc1ccc2c(c1)C(=O)N(c1ccc3[nH]ccc3n1)C2 [Example 121515]	1.24
45	COc1ccc2c(c1)CN(c1ccc3sccc3c1)C2=O [Example 121643]	1.778
115	O=C1c2cc(OC(F)F)ccc2CN1c1ccc2sccc2c1 [Example 121644]	1.801
–	COc1ccc2c(c1)C(=O)N(c1ccc3nccc(O)c3c1)C2 [Example 121645]	1.093
80	CCCOc1ccc2c(c1)C(=O)N(c1ccc3c(ccn3C)c1)C2 [Example 121785]	1.29
188	COc1ccc2c(c1)C(=O)N(c1ccc3c(ccc[n+]3[O-])c1)C2 [Example 121786]	1.498
–	O=C1c2cc(OC(F)F)ccc2CN1c1ccc2c(ccn2C(F)F)c1 [Example 121787]	1.221
–	COc1ccc2c(c1)C(=O)N(c1ccc3c(ccn3C(F)F)c1)C2 [Example 121788]	1.19
556	Cn1ccc2cc(N3Cc4ccc(S(C)(=O)=O)cc4C3=O)ccc21 [Example 121790]	1.336
1060	COc1ccc2c(c1)C(=O)N(c1ccc3ncncc3c1)C2 [Example 121791]	1.448
